Reference: patent publication US9169254B2, “Spiroimidazolone derivative” (Chugai Seiyaku Kabushiki Kaisha, priority 2009, dated 2015)

Target: T1, human PTH1 receptor (Homo sapiens, UniProt Q03431)
T1 sequence (Q03431 27-593): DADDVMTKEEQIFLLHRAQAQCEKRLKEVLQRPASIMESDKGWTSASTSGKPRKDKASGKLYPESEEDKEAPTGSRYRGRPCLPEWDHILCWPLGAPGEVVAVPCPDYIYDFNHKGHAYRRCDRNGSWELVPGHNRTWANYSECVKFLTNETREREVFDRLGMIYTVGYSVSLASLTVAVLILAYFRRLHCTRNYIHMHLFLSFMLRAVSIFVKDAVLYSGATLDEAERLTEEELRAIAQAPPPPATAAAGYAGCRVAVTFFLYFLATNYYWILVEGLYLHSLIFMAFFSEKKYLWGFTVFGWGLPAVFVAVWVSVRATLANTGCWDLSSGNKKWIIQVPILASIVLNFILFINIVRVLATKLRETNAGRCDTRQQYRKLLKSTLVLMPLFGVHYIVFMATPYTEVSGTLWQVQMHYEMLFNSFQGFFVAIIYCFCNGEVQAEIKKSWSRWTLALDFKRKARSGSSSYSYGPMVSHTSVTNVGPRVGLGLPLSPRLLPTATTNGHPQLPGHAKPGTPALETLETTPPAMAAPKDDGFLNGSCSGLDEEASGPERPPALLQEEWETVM
Assay: In vitro cAMP signal activity in HKRK-B7 cells (LLC-PK1 cells overexpressing the human PTH1 receptor)
Type: cell-based
Details: HKRK-B7 cells; compound at 1×10^−3 M; cAMP produced as percentage of that produced by hPTH(1-34) at 100 nM

SMILES	cAMP production activity (%)
Cc1cc(C(=O)N2CCN(C)CC2)ccc1/C=C/S(=O)(=O)N1CCC2(CC1)N=C(c1cccc(C(F)(F)F)c1)NC2=O [Compound 216, 8-{(E)-2-[2-methyl-4-(4-methyl-piperazine-1-carbonyl)-phenyl]-ethenesulfonyl}-2-(3-trifluoromethyl-phenyl)-1,3,8-triaza-spiro[4.5]dec-1-en-4-one]	84
Cc1cc(S(=O)(=O)NCCN2CCOCC2)ccc1/C=C/S(=O)(=O)N1CCC2(CC1)N=C(c1cccc(C(F)(F)F)c1)NC2=O [Compound 218, 3-methyl-N-(2-morpholin-4-yl-ethyl)-4-{(E)-2-[4-oxo-2-(3-trifluoromethyl-phenyl)-1,3,8-triaza-spiro[4.5]dec-1-ene-8-sulfonyl]-vinyl}-benzenesulfonamide]	72
Cc1cc(N2C[C@H](CO)OC2=O)ccc1/C=C/S(=O)(=O)N1CCC2(CC1)N=C(c1cccc(C(F)(F)F)c1)NC2=O [Compound 222, 8-{(E)-2-[4-((R)-5-hydroxymethyl-2-oxo-oxazolidin-3-yl)-2-methyl-phenyl]-ethenesulfonyl}-2-(3-trifluoromethyl-phenyl)-1,3,8-triaza-spiro[4.5]dec-1-en-4-one]	43
Cc1cc(S(=O)(=O)NCCCO)ccc1/C=C/S(=O)(=O)N1CCC2(CC1)N=C(c1cccc(OC(F)(F)F)c1)NC2=O [Compound 224, N-(3-Hydroxy-propyl)-3-methyl-4-{(E)-2-[4-oxo-2-(3-trifluoromethoxy-phenyl)-1,3,8-triaza-spiro[4.5]dec-1-ene-8-sulfonyl]-vinyl}-benzenesulfonamide]	54
Cc1c(O)cccc1/C=C/S(=O)(=O)N1CCC2(CC1)N=C(c1cccc(OC(F)(F)F)c1)NC2=O [Compound 226, 8-[(E)-2-(3-Hydroxy-2-methyl-phenyl)-ethenesulfonyl]-2-(3-trifluoromethoxy-phenyl)-1,3,8-triaza-spiro[4.5]dec-1-en-4-one]	83
Cc1cc(NS(C)(=O)=O)cc(C)c1/C=C/S(=O)(=O)N1CCC2(CC1)N=C(c1cccc(OC(F)(F)F)c1)NC2=O [Compound 229, N-(3,5-dimethyl-4-{(E)-2-[4-oxo-2-(3-trifluoromethoxy-phenyl)-1,3,8-triaza-spiro[4.5]dec-1-ene-8-sulfonyl]-vinyl}-phenyl)-methanesulfonamide]	68
Cc1cc(C(=O)N2CCC(O)CC2)ccc1/C=C/S(=O)(=O)N1CCC2(CC1)N=C(c1cccc(OC(F)(F)F)c1)NC2=O [Compound 230, 8-{(E)-2-[4-(4-hydroxy-piperidine-1-carbonyl)-2-methyl-phenyl]-ethenesulfonyl}-2-(3-trifluoromethoxy-phenyl)-1,3,8-triaza-spiro[4.5]dec-1-en-4-one]	66
CC(=O)N(CCO)c1ccc(/C=C/S(=O)(=O)N2CCC3(CC2)N=C(c2cccc(OC(F)(F)F)c2)NC3=O)c(C)c1 [Compound 232, N-(2-hydroxy-ethyl)-N-(3-methyl-4-{(E)-2-[4-oxo-2-(3-trifluoromethoxy-phenyl)-1,3,8-triaza-spiro[4.5]dec-1-ene-8-sulfonyl]-vinyl}-phenyl)-acetamide]	69
O=C1NC(c2cccc(OC(F)(F)F)c2)=NC12CCN(S(=O)(=O)/C=C/c1cc(Cl)c(OCCC(O)CO)cc1Cl)CC2 (stereo not drawn) [Compound 234, 8-{(E)-2-[2,5-dichloro-4-(3,4-dihydroxy-butoxy)-phenyl]-ethenesulfonyl}-2-(3-trifluoromethoxy-phenyl)-1,3,8-triaza-spiro[4.5]dec-1-en-4-one]	78
Cc1cc(OCCCN(C)C)ccc1/C=C/S(=O)(=O)N1CCC2(CC1)N=C(c1cccc(OC(F)(F)F)c1)NC2=O [Compound 235, 8-{(E)-2-[4-(3-dimethylamino-propoxy)-2-methyl-phenyl]-ethenesulfonyl}-2-(3-trifluoromethoxy-phenyl)-1,3,8-triaza-spiro[4.5]dec-1-en-4-one]	49
CC(=O)N(C)c1cccc(/C=C/S(=O)(=O)N2CCC3(CC2)N=C(c2cccc(OC(F)(F)F)c2)NC3=O)c1C [Compound 236, N-methyl-N-(2-methyl-3-{(E)-2-[4-oxo-2-(3-trifluoromethoxy-phenyl)-1,3,8-triaza-spiro[4.5]dec-1-ene-8-sulfonyl]-vinyl}-phenyl)-acetamide]	40
CC(=O)N(C)c1ccc(/C=C/S(=O)(=O)N2CCC3(CC2)N=C(c2cccc(OC(F)(F)F)c2)NC3=O)c(C)c1 [Compound 237, N-methyl-N-(3-methyl-4-{(E)-2-[4-oxo-2-(3-trifluoromethoxy-phenyl)-1,3,8-triaza-spiro[4.5]dec-1-ene-8-sulfonyl]-vinyl}-phenyl)-acetamide]	74
CC(=O)Nc1cc(C)c(/C=C/S(=O)(=O)N2CCC3(CC2)N=C(c2cccc(OC(F)(F)F)c2)NC3=O)c(C)c1 [Compound 238, N-(3,5-dimethyl-4-{(E)-2-[4-oxo-2-(3-trifluoromethoxy-phenyl)-1,3,8-triaza-spiro[4.5]dec-1-ene-8-sulfonyl]-vinyl}-phenyl)-acetamide]	90
O=C1NC(C2CCC(F)(F)CC2)=NC12CCN(S(=O)(=O)/C=C/c1cccc3c1ccn3C[C@H](O)CO)CC2 [Compound 241, 2-(4,4-difluoro-cyclohexyl)-8-{(E)-2-[1-((S)-2,3-dihydroxy-propyl)-1H-indol-4-yl]-ethenesulfonyl}-1,3,8-triaza-spiro[4.5]dec-1-en-4-one]	44
Cc1cc(OC[C@H](O)CO)cc(C)c1/C=C/S(=O)(=O)N1CCC2(CC1)N=C(c1ccc(F)c(C(F)(F)F)c1)NC2=O [Compound 242, 8-{(E)-2-[4-((R)-2,3-Dihydroxy-propoxy)-2,6-dimethyl-phenyl]-ethenesulfonyl}-2-(4-fluoro-3-trifluoromethyl-phenyl)-1,3,8-triaza-spiro[4.5]dec-1-en-4-one]	75

The remaining lines, values ahead:

cAMP production activity (%)	SMILES
41	Cc1cc(S(=O)(=O)NCC(F)(F)F)ccc1/C=C/S(=O)(=O)N1CCC2(CC1)N=C(c1cccc(C(F)(F)F)c1)NC2=O [Compound 217, 3-methyl-4-{(E)-2-[4-oxo-2-(3-trifluoromethyl-phenyl)-1,3,8-triaza-spiro[4.5]dec-1-ene-8-sulfonyl]-vinyl}-N-(2,2,2-trifluoro-ethyl)-benzenesulfonamide]
60	Cc1cc(S(=O)(=O)Nc2cccnc2)ccc1/C=C/S(=O)(=O)N1CCC2(CC1)N=C(c1cccc(C(F)(F)F)c1)NC2=O [Compound 219, 3-methyl-4-{(E)-2-[4-oxo-2-(3-trifluoromethyl-phenyl)-1,3,8-triaza-spiro[4.5]dec-1-ene-8-sulfonyl]-vinyl}-N-pyridin-3-yl-benzenesulfonamide]
80	Cc1cc(N2C[C@H](O)CC2=O)ccc1/C=C/S(=O)(=O)N1CCC2(CC1)N=C(c1cccc(C(F)(F)F)c1)NC2=O [Compound 220, 8-{(E)-2-[4-((R)-4-hydroxy-2-oxo-pyrrolidin-1-yl)-2-methyl-phenyl]-ethenesulfonyl}-2-(3-trifluoromethyl-phenyl)-1,3,8-triaza-spiro[4.5]dec-1-en-4-one]
47	CC(=O)N(C)c1ccc(C)c(/C=C/S(=O)(=O)N2CCC3(CC2)N=C(c2cccc(OC(F)(F)F)c2)NC3=O)c1 [Compound 225, N-methyl-N-(4-methyl-3-{(E)-2-[4-oxo-2-(3-trifluoromethoxy-phenyl)-1,3,8-triaza-spiro[4.5]dec-1-ene-8-sulfonyl]-vinyl}-phenyl)-acetamide]
87	Cc1ccc(O)cc1/C=C/S(=O)(=O)N1CCC2(CC1)N=C(c1cccc(OC(F)(F)F)c1)NC2=O [Compound 227, 8-[(E)-2-(5-hydroxy-2-methyl-phenyl)-ethenesulfonyl]-2-(3-trifluoromethoxy-phenyl)-1,3,8-triaza-spiro[4.5]dec-1-en-4-one]
96	Cc1cc(C(=O)N(C)C)ccc1/C=C/S(=O)(=O)N1CCC2(CC1)N=C(c1cccc(OC(F)(F)F)c1)NC2=O [Compound 231, 3,N,N-trimethyl-4-{(E)-2-[4-oxo-2-(3-trifluoromethoxy-phenyl)-1,3,8-triaza-spiro[4.5]dec-1-ene-8-sulfonyl]-vinyl}-benzamide]
13	CN(C)C(=O)c1ccc(/C=C/S(=O)(=O)N2CCC3(CC2)N=C(c2cccc(OC(F)(F)F)c2)NC3=O)c(F)c1 [Compound 233, 3-fluoro-N,N-dimethyl-4-{(E)-2-[4-oxo-2-(3-trifluoromethoxy-phenyl)-1,3,8-triaza-spiro[4.5]dec-1-ene-8-sulfonyl]-vinyl}-benzamide]
80	CC(=O)N(C)c1cc(C)c(/C=C/S(=O)(=O)N2CCC3(CC2)N=C(c2cccc(OC(F)(F)F)c2)NC3=O)c(C)c1 [Compound 239, N-(3,5-dimethyl-4-{(E)-2-[4-oxo-2-(3-trifluoromethoxy-phenyl)-1,3,8-triaza-spiro[4.5]dec-1-ene-8-sulfonyl]-vinyl}-phenyl)-N-methyl-acetamide]
49	O=C1NC(C2CCCCCC2)=NC12CCN(S(=O)(=O)/C=C/c1cccc3c1ccn3C[C@H](O)CO)CC2 [Compound 240, 2-Cycloheptyl-8-{(E)-2-[1-((S)-2,3-dihydroxy-propyl)-1H-indol-4-yl]-ethenesulfonyl}-1,3,8-triaza-spiro[4.5]dec-1-en-4-one]
